From patent publication US20210251239A1 (priority 2018, published 2021)
In brackets after ≈: the same amount, converted by molar mass.

Columns and labels:
[1] = target: Septoria nodorum; assay type: cell-based
[2] = system: Colletotrichum gleosporoides; assay: MTT cell viability assay for determination of IC50 for chemical fungicides; assay type: cell-based; settings: read-out: IC50 for C. gleosporoides
Method: (§1) Assays were carried out in 1.5 mL microcentrifuge tubes. The indicated fungicides were dissolved in DMSO at a stock concentration of 1 mg/mL. Enzymes were desalted into 50 mM MES buffer, pH 6.0 using a 200 mL Sephadex G25 column with 9.5 mL/min flowrate before adding to the germination assay. […] The reaction mixture without fungicide served as a negative inhibition control, and a reaction mixture containing 0.2 mg/mL mannase acid or 20 mg/mL M-PEG (1,2-propanediol) served as a positive inhibition control. The spore germination mixture was incubated at 27° C. for 3 days. At the end of the incubation period, 200 μL of 3-(4,5-dimethylthiazol-2-yl)-2,5-diphenyltetrazolium bromide (MTT) dye was added to the existing 400 μL of assay culture and was incubated for another 3 hr at 27° C. in the dark. The tubes were then centrifuged, and the supernatants were discarded. To the residue left in the tubes, 200 μL of DMSO was added to dissolve the formazan formed by the live fungal cells. The tubes were vortexed and centrifuged again. 100 μL of the supernatant from each tube was transferred into a separate well in a 96-well microtiter plate and absorbance was measured at 540 nm. Inhibition of fungal germination and growth by enzymes was determined relative to the uninhibited control for samples without chemical fungicide, and relative to the 50% inhibited cultures for samples containing each of the chemical fungicides tested.
(§2) Each fungicide was dissolved in DMSO at 1 mg/mL concentration, then added to the germination assay at final concentrations of 0, 0.01, 0.02, 0.04, 0.06, 0.08 mg/mL.

[3] = system: Fusarium verticilloides; assay: as above; assay type: cell-based; settings: for IC50: Fusarium, read-out: IC50 for F. verticilloides
Method: as §1, §2

[4] = target: Fusarium virguliforme; assay type: cell-based
[5] = target: Fusarium graminearum; assay type: cell-based
[6] = target: Botrytis cinerea

Molecule: catalase
- EC50 Enzyme [1]: 0.285 mg/mL
- IC50 plus chemistry [1]: >0.5 mg/mL

Molecule: CON=C(C(=O)OC)c1ccccc1CON=C(C)c1cccc(C(F)(F)F)c1 [Trifloxystrobin, trifloxystrobin]
- IC50 [2]: 18 µg/mL (≈ 44.1 µM)
- IC50 [3]: 6 µg/mL (≈ 14.7 µM)

Molecule: OC(Cc1ccccc1Cl)(Cn1nc[nH]c1=S)C1(Cl)CC1 (centres unmarked) [Prothioconazole, prothioconazole]
- IC50 [2]: 13 µg/mL (≈ 37.8 µM)
- IC50 [3]: 22 µg/mL (≈ 63.9 µM)

Molecule: lysozyme
- EC50 Enzyme [4]: >0.5 mg/mL
- IC50 plus chemistry [4]: 2 µg/mL

Molecule: glucose oxidase
- EC50 Enzyme [5]: <1 µg/mL
- IC50 plus chemistry [5]: <1 µg/mL
- EC50 Enzyme [4]: <0.001 mg/mL
- IC50 plus chemistry [4]: <1 µg/mL
- EC50 Enzyme [1]: <0.001 mg/mL
- IC50 plus chemistry [1]: <0.001 mg/mL
- EC50 Enzyme [6]: <1 µg/mL
- IC50 plus chemistry [6]: <1 µg/mL

Molecule: propineb [Antracol (Propineb)]
- IC50 for F. verticilloides ([3]; 50% inhibition of germination and growth, fit IC50): ~0.3 mg/mL
